Experimental data: patent US20250145642A1, “BICYCLIC HETEROARENES AND METHODS OF THEIR USE” (Kineta, Inc., priority 2021, published 2025)
Like-named read-outs stand apart in the source and are kept apart here. One block for each compound: values may come before it.

What was measured:
[1] = test system: PIKFYVE TDP-43 yeast strain; test: Propidium iodide viability assay, PIKFYVE TDP-43 yeast strain; format: cell-based; settings: for IC50: Saccharomyces cerevisiae, PIKFYVE TDP-43 yeast strain, reduction in PI-positive cells, highest concentration 15 μM, read-out: BIKFYVE TDP-43 (IC50); for PIKfyve TDP-43 (active/inactive): PIKFYVE TDP-43 yeast model
Text: (§1) Generation of TDP-43 yeast model expressing human PIKfyve. Human PIKFYVE (“entry clone”) was cloned into pAG416GPDccdB (“destination vector”) according to standard Gateway cloning protocols (Invitrogen, Life Technologies). The resulting pAG416GPD-PIKFYVE plasmids were amplified in E. coli and plasmid identity confirmed by restriction digest and Sanger sequencing. Lithium acetate/polyethylene glycol-based transformation was used to introduce the above PIKFYVE plasmid into a BY4741 yeast strain auxotrophic for the ura3 gene and deleted for two transcription factors that regulate the xenobiotic efflux pumps, a major efflux pump, and FAB1, the yeast ortholog of PIKFYVE (MATa, snq2::KILeu2; pdr3::KIura3;pdr1::NATMX; fab1::G418^R, his 3;leu2;ura3;met15;LYS2+) (FIG. 2). Transformed yeast were plated on solid agar plates with complete synthetic media lacking uracil (CSM-ura) and containing 2% glucose. Individual colonies harboring the control or PIKFYVE TDP-43 plasmids were recovered. A plasmid containing wild-type TDP-43 under the transcriptional control of the GAL1 promoter and containing the hygromycin-resistance gene as a selectable marker was transformed into the fab1::G418^R pAG416GPD-PIKFYVE yeast strain (FIG. 1). Transformed yeast were plated on CSM-ura containing 2% glucose and […] G418 after overnight recovery in media lacking antibiotic. Multiple independent isolates were further evaluated for cytotoxicity and TDP-43 expression levels.
(§2) Viability Assay. A control yeast strain with the wild-type yeast FAB1 gene and TDP-43 (“FAB1 TDP-43”, carries empty pAG416 plasmid), and the “PIKFYVE TDP-43” yeast strain, were assessed for toxicity using a propidium iodide viability assay. Both yeast strains were transferred from solid CSM-ura/2% glucose agar plates into 3 mL of liquid CSM-ura/2% glucose media for 6-8 hours at 30° C. with aeration. Yeast cultures were then diluted to an optical density at 600 nm wavelength (OD600) of 0.005 in 3 mL of CSM-ura/2% raffinose and grown overnight at 30° C. with aeration to an OD600 of 0.3-0.8. Log-phase overnight cultures were diluted to OD600 of 0.005 in CSM-ura containing either 2% raffinose or galactose and 150 μL dispensed into each well of a flat bottom 96-well plates. Compounds formulated in 100% dimethyl sulfoxide (DMSO) were serially diluted in DMSO and 1.5 μL diluted compound transferred to the 96-well plates using a multichannel pipet. Wells containing DMSO alone were also evaluated as controls for compound effects. Tested concentrations ranged from 15 μM to 0.11 μM. Cultures were immediately mixed to ensure compound distribution and covered plates incubated at 30° C. for 24 hours in a stationary, humified incubator.
(§3) Upon the completion of incubation, cultures were assayed for viability using propidium iodide (PI) to stain for dead/dying cells. A working solution of PI was made where, for each plate, 1 μL of 10 mM PI was added to 10 mL of CSM-ura (raffinose or galactose). The final PI solution (50 μL/well) was dispensed into each well of a new round bottom 96-well plate. The overnight 96-well assay plate was then mixed with a multichannel pipet and 50 μL transferred to the PI-containing plate. This plate was then incubated for 30 minutes at 30° C. in the dark. A benchtop flow cytometer (Miltenyi MACSquant) was then used to assess red fluorescence (B2 channel), forward scatter, and side scatter (with following settings: gentle mix, high flow rate, fast measurement, 10,000 events). Intensity histograms were then gated for “PI-positive” or “PI-negative” using the raffinose and galactose cultures treated with DMSO as controls. The DMSO controls for raffinose or galactose-containing cultures were used to determine the window of increased cell death and this difference set to 100. All compounds were similarly gated and then compared to this maximal window to establish the percent reduction in PI-positive cells.
Biochemical and Efficacy Assays. […]

[2] = target: full-length human PIKFYVE (N-terminal GST-fusion) (Homo sapiens (Human), UniProt Q9Y2I7, L932S/Q1183K/Q995L/S1033A/S696N/T998S); test: PIKfyve biochemical assay (ADP-Glo Kinase assay, Carna Biosciences)
Chain of full-length human PIKFYVE (N-terminal GST-fusion) (Q9Y2I7 whole entry S696N/L932S/Q995L/T998S/S1033A/Q1183K, the tested form may be a part): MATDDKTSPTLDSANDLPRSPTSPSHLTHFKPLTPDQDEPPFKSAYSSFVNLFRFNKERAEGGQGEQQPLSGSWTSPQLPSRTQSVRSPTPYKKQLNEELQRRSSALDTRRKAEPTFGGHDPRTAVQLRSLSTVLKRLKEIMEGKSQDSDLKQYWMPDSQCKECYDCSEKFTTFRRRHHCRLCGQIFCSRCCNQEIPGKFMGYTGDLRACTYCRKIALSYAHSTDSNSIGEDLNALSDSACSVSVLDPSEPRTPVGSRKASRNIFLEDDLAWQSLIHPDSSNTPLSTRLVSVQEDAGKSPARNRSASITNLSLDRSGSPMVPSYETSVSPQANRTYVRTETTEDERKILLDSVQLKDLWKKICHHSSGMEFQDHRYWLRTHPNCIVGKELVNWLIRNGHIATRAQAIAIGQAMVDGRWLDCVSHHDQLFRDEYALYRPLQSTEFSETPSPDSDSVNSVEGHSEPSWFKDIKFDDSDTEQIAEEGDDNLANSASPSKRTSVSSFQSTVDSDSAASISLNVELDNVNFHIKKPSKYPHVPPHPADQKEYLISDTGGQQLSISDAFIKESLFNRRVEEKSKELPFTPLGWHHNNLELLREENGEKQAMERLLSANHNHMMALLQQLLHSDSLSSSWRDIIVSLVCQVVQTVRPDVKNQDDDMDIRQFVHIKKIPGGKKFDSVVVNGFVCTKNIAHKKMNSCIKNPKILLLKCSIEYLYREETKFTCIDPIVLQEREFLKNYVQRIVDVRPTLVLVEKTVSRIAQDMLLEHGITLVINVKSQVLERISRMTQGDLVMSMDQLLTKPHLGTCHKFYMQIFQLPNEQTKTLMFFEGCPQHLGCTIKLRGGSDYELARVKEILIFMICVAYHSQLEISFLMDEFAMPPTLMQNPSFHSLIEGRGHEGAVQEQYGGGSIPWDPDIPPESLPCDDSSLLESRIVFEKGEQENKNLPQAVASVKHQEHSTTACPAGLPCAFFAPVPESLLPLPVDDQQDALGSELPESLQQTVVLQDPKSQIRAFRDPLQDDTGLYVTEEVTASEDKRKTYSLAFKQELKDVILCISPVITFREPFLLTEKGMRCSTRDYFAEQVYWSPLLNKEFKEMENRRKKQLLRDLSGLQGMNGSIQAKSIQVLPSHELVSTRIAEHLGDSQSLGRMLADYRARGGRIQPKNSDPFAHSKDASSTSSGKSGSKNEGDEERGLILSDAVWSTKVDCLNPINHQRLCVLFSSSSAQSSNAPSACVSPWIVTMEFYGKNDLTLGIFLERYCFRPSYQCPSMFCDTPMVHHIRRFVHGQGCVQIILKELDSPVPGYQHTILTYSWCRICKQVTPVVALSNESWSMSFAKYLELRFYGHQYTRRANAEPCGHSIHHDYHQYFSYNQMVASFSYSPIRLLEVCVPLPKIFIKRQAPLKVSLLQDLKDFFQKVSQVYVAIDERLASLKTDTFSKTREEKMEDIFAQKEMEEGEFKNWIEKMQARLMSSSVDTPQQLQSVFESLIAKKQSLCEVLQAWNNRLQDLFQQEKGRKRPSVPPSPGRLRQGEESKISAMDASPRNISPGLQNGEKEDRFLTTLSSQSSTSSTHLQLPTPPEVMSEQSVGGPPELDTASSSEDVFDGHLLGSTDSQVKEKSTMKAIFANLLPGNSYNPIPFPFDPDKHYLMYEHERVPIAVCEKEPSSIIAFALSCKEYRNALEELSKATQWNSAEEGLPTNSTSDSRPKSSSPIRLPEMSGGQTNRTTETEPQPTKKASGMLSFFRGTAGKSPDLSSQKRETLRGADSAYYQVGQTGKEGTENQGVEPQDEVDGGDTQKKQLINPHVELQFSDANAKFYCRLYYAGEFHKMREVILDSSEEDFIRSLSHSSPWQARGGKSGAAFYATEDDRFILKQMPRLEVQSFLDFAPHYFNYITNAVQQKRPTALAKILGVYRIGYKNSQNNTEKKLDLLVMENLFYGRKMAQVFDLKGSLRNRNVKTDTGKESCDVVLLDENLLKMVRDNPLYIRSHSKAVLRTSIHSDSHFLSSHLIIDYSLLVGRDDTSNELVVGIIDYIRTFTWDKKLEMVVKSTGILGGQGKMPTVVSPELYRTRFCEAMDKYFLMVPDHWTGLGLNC
Summary of the method: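 Baculovirus-expressed, glutathione-purified GST-tagged full-length human PIKFYVE (S696N/L932S/Q995L/T998S/S1033A/Q1183K) reacted with substrate and ATP in 50 mM MOPS, 1 mM DTT, pH 7.2, 1 h at room temperature. ADP formed read by ADP-Glo luminescence.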

[3] = target: PIKfyve (PIKFYVE-NanoLuc fusion in HEK293 cells) (Homo sapiens (Human), UniProt Q9Y2I7); test: NanoBRET TE Intracellular Kinase Assay, K-8 (Promega) cell-based assay; settings: transfected HEK293 cells, 2 hours, read-out: hPIKfyve BRET IC50
Chain of PIKfyve (PIKFYVE-NanoLuc fusion in HEK293 cells) (Q9Y2I7 whole entry, the tested form may be a part): as the sequence (Q9Y2I7 whole entry S696N/L932S/Q995L/T998S/S1033A/Q1183K, the tested form may be a part) above, with N696S, S932L, L995Q, S998T, A1033S, K1183Q counted along it
Method: NanoBRET™ TE Intracellular Kinase Assay, K-8 (Promega) Cell-Based Assay. Intracellular inhibition of PIKfyve was assayed using Promega's NanoBRET™ TE Intracellular Kinase Assay, K-8 according to manufacturer's instructions. A dilution series of test compounds was added for 2 hours to HEK293 cells transfected for a minimum of 20 hours with PIKFYVE-NanoLuc® Fusion Vector (Promega) containing a full-length PIKfyve according to manufacturer's specifications in a 96-well plate. Kinase activity was detected by addition of a NanoBRET™ tracer reagent, which was a proprietary PIKfyve inhibitor appended to a fluorescent probe (BRET, bioluminescence resonance energy transfer). Test compounds were tested at concentrations of 10, 3, 1, 0.3, 0.1, 0.03, 0.01, 0.003 μM. BRET signals were measured by a GloMax®Discover Multimode Microplate Reader (Promega) using 0.3 sec/well integration time, 450 BP donor filter and 600 LP acceptor filters. Active test compounds that bound PIKfyve and displaced the tracer reduced BRET signal. IC50 values were then calculated by fitting the data to the normalized BRET ratio.

FAB1 TDP-43 yeast strain = test: Propidium iodide viability assay, FAB1 TDP-43 yeast strain; format: cell-based; settings: for FAB1 TDP-43 (active/inactive): FAB1 TDP-43 yeast model
Text: as §1, §2, §3

[4] = ADP-Glo, full-length human GST-PIKFYVE, 10 μM to 3 nM, read-out: hPIKfyve IC50

Compound: Cc1cccc(/C=N/Nc2nc(N3CCOCC3)c3nc(-c4ccncc4)n(C)c3n2)c1
- IC50 [1]: 4720 nM

Compound: Clc1nc(N2CCOCC2)nc2c1CCN2c1ccccc1 [Compound 1, 4-(4-chloro-7-phenyl-6,7-dihydro-5H-pyrrolo[2,3-d]pyrimidin-2-yl)morpholine]
- IC50 [2, 4]: 100 to 1000 nM
- IC50 [3]: 100 to 1000 nM

Compound: c1ccc(-n2ncc3c(OCc4cccnc4)nc(N4CCOCC4)nc32)cc1 [Compound 132, 4-(1-phenyl-4-(pyridin-3-ylmethoxy)-1H-pyrazolo[3,4-d]pyrimidin-6-yl)morpholine]
- IC50 [2, 4]: 10 to 100 nM
- IC50 [3]: 100 to 1000 nM

Compound: Oc1cc(-c2ccccc2)nn1-c1cc(N2CCOCC2)n2nc(-c3ccncc3)nc2n1
- IC50 [1]: 693 nM

Compound: Cc1cccc(/C=N/Nc2cc(N3CC4CC3CO4)n3nc(-c4ccncc4)cc3n2)c1 (centres unmarked)
- FAB1 TDP-43 (active/inactive) (FAB1 TDP-43 yeast strain): Inactive
- PIKfyve TDP-43 (active/inactive) [1]: Active

Compound: Cc1cccc(/C=N/Nc2cc(N3CCOCC3)nc(OCCc3ccc(CN)cc3)n2)c1
- IC50 [1]: 1120 nM

Compound: c1ccc(-c2cccc(-c3cc(N4CCOCC4)n4nc(-c5ccncc5)cc4n3)n2)cc1
- IC50 [1]: 230 nM

Compound: Oc1cc(C2CCOCC2)nn1-c1cc(N2CCOCC2)n2nc(-c3ccncc3)cc2n1
- IC50 [1]: 9100 nM

Compound: c1ccc(N2CCc3c(OC4CCOCC4)nc(N4CCOCC4)nc32)cc1 [Compound 21, 4-(7-phenyl-4-((tetrahydro-2H-pyran-4-yl)oxy)-6,7-dihydro-5H-pyrrolo[2,3-d]pyrimidin-2-yl)morpholine]
- IC50 [2, 4]: 100 to 1000 nM
- IC50 [3]: 100 to 1000 nM

Compound: c1ccc(-c2ccnc(-c3cc(N4CCOCC4)nc(OCc4ccncc4)n3)n2)cc1
- IC50 [1]: 1450 nM

Compound: N#Cc1cc(N2CCOCC2)n2nc(-c3ccncc3)cc2n1
- FAB1 TDP-43 (active/inactive) (FAB1 TDP-43 yeast strain): Inactive
- PIKfyve TDP-43 (active/inactive) [1]: Inactive

Compound: Cc1cccc(/C=N/Nc2cc(N3CCOCC3)n3nc(-c4ccncc4)cc3n2)c1 [drawing 514]
- FAB1 TDP-43 (active/inactive) (FAB1 TDP-43 yeast strain): Inactive
- PIKfyve TDP-43 (active/inactive) [1]: Active

- IC50 ([2]; values plotted in FIG. 7, read-out: PIKFYVE Biochemistry (IC50)): > 10000 nM
Compound: Fc1cccc(-c2ccnn2-c2nc(N3CCOCC3)c3ncccc3n2)c1
- IC50 [1]: 5750 nM

- IC50 ([2]; ADP-Glo with full-length PIKfyve, read-out: PIKfyve IC50): 4.9 nM
Compound: Cc1cccc(/C=N/Nc2nc3c(c(N4CCOCC4)n2)N=C(c2ccncc2)C3C)c1 (centres unmarked)
- FAB1 TDP-43 (active/inactive) (FAB1 TDP-43 yeast strain): Inactive
- PIKfyve TDP-43 (active/inactive) [1]: Active

Compound: c1ccc(N2CCc3c(OCc4cccnc4)nc(N4CCOCC4)nc32)cc1 [drawing 539]
- IC50 [1]: 2680 nM

Compound: Cc1cccc(/C=N/Nc2nc(N3CCOCC3)c3ncccc3n2)c1
- IC50 [1]: 8210 nM

Compound: CN(C)c1cc(N2CCOCC2)n2nc(-c3ccncc3)cc2n1
- FAB1 TDP-43 (active/inactive) (FAB1 TDP-43 yeast strain): Inactive
- PIKfyve TDP-43 (active/inactive) [1]: Inactive

Compound: Cc1cccc(/C=N/Nc2cc(N3CCOCC3)n3nc(-c4ccncc4)cc3n2)c1 [APY0201, reference compound]
- viable cells in FAB1 TDP-43 (propidium iodide) (FAB1 TDP-43 yeast strain; across a range of compound concentrations (only 0.23 μM is shown), FIG. 5): no increase in viable cells
- propidium iodide-positive dead cells in PIKFYVE TDP-43 ([1]; 0.23 μM, FIG. 6): reduced the population of propidium iodide-positive dead cells
- concentrations affording increased viability in PIKFYVE TDP-43 ([1]; PIKFYVE TDP-43 model): Concentrations ranging from 0.5 mM to less than 100 nM afforded increased viability

Compound: Cn1c(-c2ccncc2)nc2c(N3CCOCC3)ncnc21
- FAB1 TDP-43 (active/inactive) (FAB1 TDP-43 yeast strain): Inactive
- PIKfyve TDP-43 (active/inactive) [1]: Inactive

Compound: c1ccc(N2CCc3c(OCc4cncnc4)nc(N4CCOCC4)nc32)cc1 [Compound 14, 4-(7-phenyl-4-(pyrimidin-5-ylmethoxy)-6,7-dihydro-5H-pyrrolo[2,3-d]pyrimidin-2-yl)morpholine]
- IC50 [2, 4]: 10 to 100 nM

Compound: CN1CCCC(COc2nc(N3CCOCC3)nc3c2CCN3c2cncnc2)C1 (centres unmarked) [Compound 16, 4-(4-((1-methylpiperidin-3-yl)methoxy)-7-(pyrimidin-5-yl)-6,7-dihydro-5H-pyrrolo[2,3-d]pyrimidin-2-yl)morpholine]
- IC50 [2, 4]: 1000 to 10000 nM

Compound: CN1CCCC(COc2nc(N3CCOCC3)nc3c2CCN3CC(C)(C)O)C1 (centres unmarked) [Compound 40, 2-methyl-1-(4-((1-methylpiperidin-3-yl)methoxy)-2-morpholino-6H-pyrrolo[2,3-d]pyrimidin-7(6H)-yl)propan-2-ol]
- IC50 [2, 4]: > 10000 nM
